Source: the supplement of paper PMC10307832

Key:
Test in all cases: relative viability (nuclei count vs DMSO), 5 days (fraction); higher = more cells survive
[1] = compound: O=c1[nH]cc(F)c(=O)[nH]1 [5-Fluorouracil] + N=C(N)NC(=N)NCCc1ccccc1 [Phenformin] (partner 250 µM)
Procedure, shortened: (§1)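 Values are medians from duplicate plates. Each reflects relative viability, defined as the nuclei count of treated wells over that of vehicle wells. Lung cancer cell lines in 1536-well plates were pin-tool dosed one day after seeding with one drug alone or with a fixed anchor-drug dose plus five library-drug doses (not always all listed) in √10 steps, then fixed, stained and imaged at 4× after 5 days.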

Sulindac + OSI-027 = compound: CC1=C(CC(=O)O)c2cc(F)ccc2/C1=C\c1ccc([S+](C)[O-])cc1 [Sulindac] + COc1cccc2cc(-c3nc([C@H]4CC[C@H](C(=O)O)CC4)n4ncnc(N)c34)[nH]c12 [OSI-027] (partner 0.5 µM)
Procedure, shortened: as §1

Staurosporine + AZD7762 = compound: CN[C@@H]1C[C@H]2O[C@@](C)([C@@H]1OC)n1c3ccccc3c3c4c(c5c6ccccc6n2c5c31)C(=O)NC4 [Staurosporine] + NC(=O)Nc1cc(-c2cccc(F)c2)sc1C(=O)N[C@H]1CCCNC1 [AZD7762] (partner 0.2 µM)
Procedure, shortened: as §1

5-Fluorouracil + OSI-027 = compound: O=c1[nH]cc(F)c(=O)[nH]1 [5-Fluorouracil] + COc1cccc2cc(-c3nc([C@H]4CC[C@H](C(=O)O)CC4)n4ncnc(N)c34)[nH]c12 [OSI-027] (partner 0.5 µM)
Procedure, shortened: as §1

Cell Line	relative viability ([1]; first compound 0.02 µM)	relative viability ([1]; first compound 0.2 µM)	relative viability ([1]; first compound 0.6325 µM)	relative viability ([1]; first compound 2 µM)	relative viability (Sulindac + OSI-027; first compound 0.08 µM)	relative viability (Sulindac + OSI-027; first compound 0.253 µM)	relative viability (Sulindac + OSI-027; first compound 0.8 µM)	relative viability (Sulindac + OSI-027; first compound 2.53 µM)	relative viability (Sulindac + OSI-027; first compound 8 µM)	relative viability (Staurosporine + AZD7762; first compound 0.005 µM)	relative viability (Staurosporine + AZD7762; first compound 0.01581 µM)	relative viability (Staurosporine + AZD7762; first compound 0.05 µM)	relative viability (Staurosporine + AZD7762; first compound 0.1581 µM)	relative viability (Staurosporine + AZD7762; first compound 0.5 µM)	relative viability (5-Fluorouracil + OSI-027; first compound 0.02 µM)	relative viability (5-Fluorouracil + OSI-027; first compound 0.2 µM)	relative viability (5-Fluorouracil + OSI-027; first compound 0.6325 µM)	relative viability (5-Fluorouracil + OSI-027; first compound 2 µM)
NCI-H2085	0.577	0.844	0.761	0.68	0.8	0.822	0.674	0.831	0.755	0.751	0.42	0.47	0.245	0.276	0.69	0.676	0.771	0.502
LC-2-ad	0.554	0.512	0.407	0.385	0.763	0.986	0.686	0.701	0.776	–	0.276	0.172	0.12	0.0995	0.91	0.582	0.404	0.322
ABC-1	0.202	0.253	0.257	0.23	0.503	0.447	0.361	0.466	0.489	0.3	0.496	0.393	0.642	0.0806	0.453	0.518	0.53	0.261
NCI-H1792	0.199	0.365	0.177	0.122	0.848	0.884	–	0.815	0.899	0.227	0.0748	0.0605	0.0466	0.0293	0.838	0.602	0.317	0.222
EPLC-272H	0.247	0.257	0.245	0.184	0.274	0.286	–	0.256	0.327	0.235	0.145	0.111	0.0612	0.0657	0.272	0.257	0.263	0.212
NCI-H1437	0.238	0.192	0.137	0.173	1.01	1	0.767	0.811	0.96	1.02	0.686	0.78	0.574	0.219	0.495	0.23	0.205	0.188
EKVX	0.18	0.179	0.13	0.134	0.674	0.713	0.641	0.598	0.684	0.239	0.119	0.286	0.321	–	–	–	0.148	0.134
NCI-H1651	0.395	0.334	0.265	0.341	0.783	0.698	–	0.801	0.85	0.522	0.352	0.295	0.219	0.195	0.832	0.628	0.507	0.475
HCC-15	0.563	0.532	0.332	0.27	0.77	0.716	0.526	0.634	0.667	1.28	–	1.22	0.736	0.302	0.781	0.718	0.442	0.311
LCLC-103H	0.339	0.327	0.258	0.249	0.558	0.499	0.388	0.496	0.555	0.827	0.41	0.334	0.231	0.194	0.503	0.59	0.379	0.311
NCI-H2347	0.296	0.489	0.24	0.328	0.398	0.363	–	0.301	0.511	0.459	0.264	0.374	–	0.224	0.939	0.322	0.298	0.329
NCI-H1915	–	0.34	0.355	0.361	0.764	0.688	–	0.678	0.625	0.707	0.495	0.346	0.21	0.09	0.561	0.616	0.591	0.525
NCI-H650	0.406	0.339	0.328	0.319	0.506	0.523	0.523	0.545	0.566	0.432	0.304	0.273	0.227	0.306	0.493	0.357	0.362	0.267
NCI-H596	0.863	0.676	0.643	0.508	0.798	0.761	0.76	0.77	0.772	1.08	0.769	0.471	0.28	0.303	0.832	0.82	0.623	0.337
HCC-366	0.562	0.622	0.424	0.0966	1.33	1.11	0.947	0.836	0.964	0.255	–	0.165	0.0217	0.0248	1.18	0.868	0.439	0.144
NCI-H2087	0.49	0.555	0.438	0.333	0.67	0.595	–	0.46	0.567	1.3	–	0.681	0.207	0.0787	0.555	0.563	0.464	0.346
NCI-H2342	0.619	0.72	0.559	0.635	0.591	0.578	0.546	0.618	0.694	0.642	0.412	0.373	0.335	0.328	0.698	0.731	0.735	0.638
RERF-LC-KJ	0.465	0.452	0.466	0.386	0.681	0.671	0.551	0.569	0.587	1.07	0.804	0.436	0.24	0.177	0.609	0.553	0.543	0.471
